Data from patent US5374645A (Ciba-Geigy Corporation, priority 1993, dated 1994).
Read-outs that look alike come from different tables or passages of the source.

What was measured:
Rabbits = details: rabbit, in vivo
[1] = not given; remark: listed apart in the source

SMILES | classification as primary irritant or corrosive by dermal application (Rabbits) | Terbutaline Flux (pH 3.8) | relative flux (flux in water case as unity) (pH 3.8) | Terbutaline Flux (pH 4.4) | relative flux (flux in water case as unity) (pH 4.4) | Terbutaline Flux (pH 4.6) | relative flux (flux in water case as unity) (pH 4.6) | Terbutaline Flux (pH 4.9) | relative flux (flux in water case as unity) (pH 4.9) | Terbutaline Flux (pH 5) | relative flux (flux in water case as unity) (pH 5) | Terbutaline Flux ([1]; pH 3.8) | relative flux (flux in water case as unity) ([1]; pH 3.8) | Terbutaline Flux ([1]; pH 4.2) | relative flux (flux in water case as unity) ([1]; pH 4.2)
CC(C)O [Isopropanol, isopropanol] | neither pure isopropanol nor aqueous isopropanol are classified as primary irritants or as corrosives |  |  |  |  |  |  |  |  |  |  |  |  |  | 
CC(C)(C)NCC(O)c1cc(O)cc(O)c1 (stereo not drawn) [Terbutaline, terbutaline] |  | 0.1 mcg/cm^2 /hr | 1 | 16.3 mcg/cm^2 /hr | 163 | 12.8 mcg/cm^2 /hr | 128 | 16.1 mcg/cm^2 /hr | 161 | 5.3 mcg/cm^2 /hr | 53 | 0.1 mcg/cm^2 /hr | 1 | 4.1 mcg/cm^2 /hr | 40
